Laboratory results as given in paper PMC3173463, “Discovery of Dual-Action Membrane-Anchored Modulators of Incretin Receptors” (PLoS ONE, 2011).
Where no end group is shown, it is not given here.

Assays:
[1] = target: T1, GLP-1R (Homo sapiens, UniProt P43220); experiment: CRE luciferase reporter gene assay, membrane-tethered ligand co-transfected with GLP-1R; format: cell-based; settings: CRE6X-LUC, relative to wild-type tethered construct; Figure 2A-B
T1 construct: expressed in transfected cells; host or cells: HEK293 cells, transient transfection, pcDNA1.1 plasmid
T1 sequence (P43220 24-463): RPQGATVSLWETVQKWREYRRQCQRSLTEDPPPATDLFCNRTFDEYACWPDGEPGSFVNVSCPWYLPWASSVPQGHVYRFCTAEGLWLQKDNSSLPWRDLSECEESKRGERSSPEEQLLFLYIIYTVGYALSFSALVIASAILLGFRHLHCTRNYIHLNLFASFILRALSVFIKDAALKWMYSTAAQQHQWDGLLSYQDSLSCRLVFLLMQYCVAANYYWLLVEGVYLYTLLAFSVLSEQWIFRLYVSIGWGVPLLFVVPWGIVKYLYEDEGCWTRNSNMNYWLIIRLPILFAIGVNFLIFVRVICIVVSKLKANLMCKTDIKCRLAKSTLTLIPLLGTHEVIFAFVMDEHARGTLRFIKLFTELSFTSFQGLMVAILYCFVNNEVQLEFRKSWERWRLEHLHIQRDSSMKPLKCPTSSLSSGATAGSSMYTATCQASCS
Procedure: Figure 2 Activity and selectivity of wild-type and G^7/K^7 derivatives of tGLP-1 and tEXE4. […] HEK 293 cells were transiently transfected with cDNAs encoding the GLP-1R or GIP-R, a tethered ligand, and a CRE6X-LUC reporter gene construct. Twenty four hours post-transfection, ligand-induced activity was quantified as described in Methods. […] Data represent the mean ± SEM from at least 4 independent experiments, each performed at least in quadruplicate.
Receptor-mediated signaling was assessed using a previously described luciferase assay, [18]. In brief, HEK293 cells were plated at a density of 3000–6000 cells per well into clear-bottom, white 96-well plates and grown for 1–2 days to ∼80% confluency. […] Following ligand stimulation, the medium was gently aspirated, the cells were lysed and luciferase activity was quantified using a TopCount NTX after addition of Steadylite^R reagent (PerkinElmer, Boston, MA). […] Substrate cleavage (an index of β-galactosidase expression was quantified by measurement of optical density at 420 nm using a SpectraMax^R microplate reader (Molecular Devices, Sunnyvale, CA). Corresponding values were used to normalize the luciferase data for transfection efficiency.

[2] = target: T2, GIP-R (Homo sapiens, UniProt P48546); experiment: CRE luciferase reporter gene assay, soluble ligands on GIP-R expressing cells; format: cell-based; settings: soluble peptides, 6 hours stimulation; Figure 3B
T2 construct: expressed in transfected cells; host or cells: HEK293 cells, transient transfection, pcDNA1.1 plasmid
T2 sequence (P48546 22-466): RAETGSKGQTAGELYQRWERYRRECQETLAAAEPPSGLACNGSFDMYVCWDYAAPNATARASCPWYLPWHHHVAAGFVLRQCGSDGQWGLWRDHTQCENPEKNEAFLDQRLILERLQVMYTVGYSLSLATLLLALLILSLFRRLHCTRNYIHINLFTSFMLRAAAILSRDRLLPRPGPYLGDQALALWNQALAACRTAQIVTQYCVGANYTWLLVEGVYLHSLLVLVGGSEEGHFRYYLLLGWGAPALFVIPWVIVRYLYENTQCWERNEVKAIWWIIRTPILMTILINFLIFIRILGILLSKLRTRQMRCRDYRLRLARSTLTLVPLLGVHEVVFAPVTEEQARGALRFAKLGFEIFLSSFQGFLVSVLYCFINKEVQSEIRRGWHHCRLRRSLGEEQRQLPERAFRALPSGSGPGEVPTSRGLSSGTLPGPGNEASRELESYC
Procedure: HEK293 cells were transiently transfected with cDNAs encoding the indicated receptor and a CRE6X-LUC reporter gene construct. Twenty four hours post-transfection, cells were stimulated for 6 hours with soluble peptides; ligand-induced activity was then quantified.
Receptor-mediated signaling was assessed using a previously described luciferase assay [15], [18]. In brief, HEK293 cells were plated at a density of 3000–6000 cells per well into clear-bottom, white 96-well plates and grown for 1–2 days to ∼80% confluency. Cells were then transiently transfected using Lipofectamine^R reagent (Invitrogen, Carlsbad, CA) with cDNAs encoding (i) a GPCR (or the empty expression vector), (ii) a tethered ligand (where applicable), (iii) the CRE6X-LUC reporter gene and (iv) β-galactosidase (as a control for transfection efficiency). For experiments investigating the agonist function of soluble peptides, tethered ligand cDNA was not included in the transfection reaction. Twenty four hours after transfection, cells were incubated with or without selected soluble peptide in serum-free medium for 6 hours. Following ligand stimulation, the medium was gently aspirated, the cells were lysed and luciferase activity was quantified using a TopCount NTX after addition of Steadylite^R reagent (PerkinElmer, Boston, MA).

[3] = tested on: HA-tagged GIP-R; experiment: HA-tagged GIP-R cell surface expression by ELISA; format: cell-based, human; settings: HEK 293, HA-GIPR, ELISA 48 hours after transfection, soluble ligand added 24 h after transfection; Figure 4A
Procedure: The impact of soluble peptide (A), tethered ligands (B) and the interaction between soluble and tethered ligands on HA-GIPR surface expression (C) was measured by ELISA. HEK 293 cells were transfected with a plasmid encoding the HA-tagged GIP-R, with or without increasing amounts of a tethered ligand cDNA. Twenty four hours after transfection, soluble ligands were added in selected wells, as indicated. In each experiment, receptor expression was evaluated 48 hours after transfection. […] Data represent the mean ± SEM from at least 4 independent experiments, each performed in 12 replicates. The expression of HA-GIPR in the absence vs presence of soluble or tethered ligand were compared by analysis of variance followed by Dunnett's post-test; significance, *, p<0.05; **, p<0.01.
The surface expression levels of myc-tagged tethered ligands or HA-tagged GIP-Rs were assessed using a previously-established procedure [15], [18]. HEK293 cells grown in 96-well clear Primaria plates (BD Biosciences, Bedford, MA) were transiently transfected with either pcDNA1.1 or a cDNA encoding the relevant epitope-tagged proteins (tethered ligand and/or GIP-R). […] Light absorbance at 450 nm was quantified as a measure of protein expression) using a SpectraMax^R microplate reader.

[4] = tested on: GIPR-CHE; experiment: Confocal microscopy of GIPR-CHE subcellular distribution; format: cell-based, human; settings: HEK 293, 18 hours treatment, Figure 5A
Procedure: The impact of selected soluble peptides (A) and tethered ligands (B) on the subcellular distribution of GIPR-CHE was studied using confocal microscopy. HEK 293 cells were transiently transfected with a plasmid encoding the GIPR-CHE, with or without cDNA encoding a GFP-tagged tethered ligand. Twenty-four hours later, the cells were treated for 18 hours with a soluble peptide or the corresponding vehicle, as indicated. The subcellular distribution of receptor was then visualized.
Cells were transfected with plasmids encoding GIPR-CHE and tEXE4-GFP or tGLP1-GFP. Twenty-four hours later, the cells were treated for 18 h with media containing 100 nM of soluble GIP, followed by confocal microscopy imaging.
HEK293 cells were plated at a density of 150,000 cells per dish onto poly-L-lysine coated 35 mm glass bottom dishes (MatTek Corporation, Ashland, MA) and grown for 1 day to ∼60–80% confluency. Cells were then transfected with cDNA encoding GIPR-CHE and a GFP-tagged tethered ligand construct. In some experiments, soluble peptides were added 24 hours after transfection and cells were incubated at 37°C for an additional 18–24 hours before imaging. Forty eight hours following transfection, the cells were washed once with PBS and fixed with 4% paraformaldehyde in PBS for 10 minutes. […]

Row | Substance | tethered ligand-induced activity at the GLP-1R [1] | agonist activity of soluble peptide at the GIP-R [2] | GIP-R surface expression after prolonged incubation with soluble ligand [3] | GIPR-CHE subcellular distribution after soluble peptide [4]
1 | [G^7]tGLP-1: membrane-tethered GLP-1 with glycine at position 7 (GAEGTFTSDVSSYLEGQAAKEFIAWLVKGRG; also: fused with epitope tag, linkers, membrane-anchoring sequence; UniProt P01275 98-128, looked up, variant H7G) | activity comparable to the corresponding unmodified ligands | – | – | –
2 | glucagon-like peptide-1 [GLP-1] | – | even lower potency agonist | no effect | –
3 | glucose-dependent insulinotropic polypeptide [GIP] | – | – | markedly reduced | massive GIPR-CHE endocytosis
